According to the SangsterLogP compilation:

logP | SMILES
9.29 | CCCCCCCCCCCC(CC)c1ccccc1 (stereo not drawn)
7 | CCCCCCCC(CC)c1ccccc1 (stereo not drawn)
8.07 | CCCCCCCCC(CCC)c1ccccc1 (stereo not drawn)
8.1 | CCCCCCCCCC(CC)c1ccccc1 (stereo not drawn)
8.01 | CCCCCCCC(CCCC)c1ccccc1 (stereo not drawn)
8.01 | CCCCCCC(CCCCC)c1ccccc1 (stereo not drawn)
9.25 | CCCCCCCCCCC(CCC)c1ccccc1 (stereo not drawn)
9.29 | CCCCCCCCCCCCC(C)c1ccccc1 (stereo not drawn)
6.9 | CCCCCC(CCCC)c1ccccc1 (stereo not drawn)
8.56 | CCCCCCCC(CCCCC)c1ccccc1 (stereo not drawn)
9.36 | CCCCCCCCCCCCCc1ccccc1
9.95 | CCCCCCCCCCCCCCc1ccccc1
8.56 | CCCCCCCCC(CCCC)c1ccccc1 (stereo not drawn)
8.62 | CCCCCCCCCC(CCC)c1ccccc1 (stereo not drawn)
7.45 | CCCCCC(CCCCC)c1ccccc1
7.45 | CCCCCCC(CCCC)c1ccccc1 (stereo not drawn)
7.59 | CCCCCCCC(CCC)c1ccccc1 (stereo not drawn)
8.14 | CCCCCCCCCCCc1ccccc1
7 | CCCCCCC(CCC)c1ccccc1 (stereo not drawn)
9.16 | CCCCCCCCCC(CCCC)c1ccccc1 (stereo not drawn)
8.65 | CCCCCCCCCCCCc1ccccc1
7.53 | CCCCCCCCC(CC)c1ccccc1 (stereo not drawn)
9.16 | CCCCCCCCC(CCCCC)c1ccccc1 (stereo not drawn)
8.65 | CCCCCCCCCCC(CC)c1ccccc1 (stereo not drawn)

SMILES | logP
CCCCCCCCC(C)c1ccccc1 (stereo not drawn) | 7.06
CCCCCCCCCC(C)c1ccccc1 (stereo not drawn) | 7.63
CCCCCCCCCCCC(C)c1ccccc1 (stereo not drawn) | 8.77
CCCCCCCCCCC(C)c1ccccc1 (stereo not drawn) | 8.19
